Reference: patent US20120258076A1, “METHOD FOR CHARACTERIZING HOST IMMUNE FUNTION BY EX VIVO INDUCTION OF OFFENSIVE AND DEFENSIVE IMMUNE MARKERS” (HITACHI CHEMICAL RESEARCH CENTER, INC., priority 2009, published 2012)

System: heparinized whole blood
Assay: Drug screening: inhibitor preincubation of whole blood, then PBS or rIL-2 stimulation, mRNA quantification
Assay type: cell-based, human
Source text: Beta-actin expression served as a control for the expression assay. Offensive immune markers characterized included tumor necrosis factor superfamily (TNFSF) 1 (lymphotoxin), 2 (TNFα), 5 (CD40L), 6 (FasL), 8 (CD30L), 9 (CD137L), 14 (LIGHT), and 15 (TL1A). Chemokines characterized included CCL2, CCL3, CCL4, CCL8, CCL11, CCL20, CXCL1, CXCL2, CXCL3, CXCL10. Interleukins characterized include IL6, IL8, IL10, IL17, and IL23. Immune effectors characterized include GM-CSF, INFγ, CD16, Granzyme B, CD122, and TGFB-1. Markers of defensive immune function characterized include FoxP3, CTLA4, CD25, and GARP-1. Other offensive or defensive immune markers, as well as other chemokines, interleukins or effectors (among other immune-associated markers) can be tested in certain embodiments.
Shaded boxes represent a fold increase of greater than 2 as well as a statistical p value of <0.05. […] The various inhibitor compounds used to pre-treat the whole blood samples are listing on the x-axis. […] Thus, this compound has a potential to block or reduce the offensive immune response and may function as a pro-immunosuppressant compound. […] Thus, from this set of experiments, it is unclear if this particular Jak inhibitor is well-suited for promoting offensive or defensive immune responses. Further dose-response studies and/or studies with additional immune markers are necessary to elucidate the efficacy of this compound.
Embodiments of the methods described herein are also well suited to the characterization of various derivative or modified compounds, in that a single assay can generate side by side data comparing of a panel of putative derivative compounds. Moreover, based on the distinct features of the data described above, embodiments of the methods described herein are useful to detecting defensive-specific (i.e. pro-offensive) inhibitor compounds for use in clinical situations. Thus, this assay platform is useful for the analysis/screening of common and selective inhibitors for offensive and defensive immune functions.

| SMILES | induction of IFNγ in response to PBS or rIL-2 in presence of inhibitor (additional experiments, FIG. 4A-4B) | induction of TNFSF-1 in response to PBS or rIL-2 in presence of inhibitor (additional experiments, FIG. 4C-4D) | induction of CD25 in response to PBS or rIL-2 in presence of inhibitor (additional experiments, FIG. 4G-4H) | induction of FoxP3 in response to PBS or rIL-2 in presence of inhibitor (additional experiments, FIG. 4I-4J) | induction of TNFSF1 mRNA in response to rIL-2 in presence of inhibitor (inhibitor 10 mM, 1 hour preincubation, then rIL-2 100 ng/ml 4 hours, FIG. 3A) | induction of CD25 mRNA in response to rIL-2 in presence of inhibitor (inhibitor 10 mM, 1 hour preincubation, then rIL-2 100 ng/ml 4 hours, FIG. 3I) | induction of FoxP3 mRNA in response to rIL-2 in presence of inhibitor (inhibitor 10 mM, 1 hour preincubation, then rIL-2 100 ng/ml 4 hours, FIG. 3J) |
| --- | --- | --- | --- | --- | --- | --- | --- |
| O=C1Nc2ccccc2/C1=C1/Nc2ccccc2/C1=N\OCC(O)CO (stereo not shown) [E084] | specific inhibition | specific inhibition | induced | induced | – | – | – |
| CC(C)(C)c1nc2c3cc[nH]c(=O)c3c3cc(F)ccc3c2[nH]1 [Jak inhibitor] | – | – | – | – | no induction | blocks induction | blocks induction |
